pIC50: −log10 of the molar value. Converted amounts (≈) assume the structure as drawn. The source made the active and inactive calls. No cut-off for these calls is given here.
Experiments:
Staphylococcus aureus [1] = assay: In vivo antibacterial activity against methicilin-resistant Staphylococcus aureus ATCC33591 infected in BALB/c mouse skin infection model assessed as restoration of cell morphology at 20 mg/kg administered daily for 4 days by H and E staining based analysis; format: functional, organism-based; details: time 4.0 day
Staphylococcus aureus [2] = assay: In vivo antibacterial activity against methicilin-resistant Staphylococcus aureus ATCC33591 infected in BALB/c mouse skin infection model assessed as decrease in lesion size at 10 mg/kg administered daily for 4 days (reference value: 43.4 mm2); format: functional; details: time 4 day
Staphylococcus aureus [3] = assay: In vivo antibacterial activity against methicilin-resistant Staphylococcus aureus ATCC33591 infected in BALB/c mouse skin infection model assessed as reduction in area of injury at 20 mg/kg administered daily for 4 days by H and E staining based analysis; format: functional, organism-based; details: time 4.0 day
Enterococcus faecium = assay: Antimicrobial activity against Enterococcus faecium ATCC19434 measured after 24 hrs by CLSI protocol based microdilution method; format: functional
Staphylococcus aureus [4] = assay: Antimicrobial activity against […] Staphylococcus aureus USA300 measured after 24 hrs by CLSI protocol based microdilution method; format: functional
Candida albicans = assay: Antimicrobial activity against Candida albicans SC5314 measured after 48 hrs by CLSI protocol based microdilution method; format: functional
Pseudomonas aeruginosa = assay: Antimicrobial activity against Pseudomonas aeruginosa PAO1 measured after 24 hrs by CLSI protocol based microdilution method; format: functional
Escherichia coli = assay: Antimicrobial activity against Escherichia coli ATCC25922 measured after 24 hrs by CLSI protocol based microdilution method; format: functional
Staphylococcus aureus [5] = assay: Antimicrobial activity against […] Staphylococcus aureus NRS271 measured after 24 hrs by CLSI protocol based microdilution method; format: functional
Staphylococcus aureus [6] = assay: In vivo antibacterial activity against methicilin-resistant Staphylococcus aureus ATCC33591 infected in BALB/c mouse skin infection model assessed as reduction in number of inflammatory cells at 20 mg/kg administered daily for 4 days by H and E staining based analysis; format: functional, organism-based; details: time 4.0 day
Acinetobacter baumannii = assay: Antimicrobial activity against Acinetobacter baumannii ATCC19606 measured after 24 hrs by CLSI protocol based microdilution method; format: functional
Staphylococcus aureus [7] = assay: Antimicrobial activity against […] Staphylococcus aureus ATCC43300 measured after 24 hrs by CLSI protocol based microdilution method; format: functional
Staphylococcus aureus [8] = assay: Antimicrobial activity against […] Staphylococcus aureus ATCC33591 measured after 24 hrs by CLSI protocol based microdilution method; format: functional
Enterococcus faecalis = assay: Antimicrobial activity against Enterococcus faecalis ATCC29212 measured after 24 hrs by CLSI protocol based microdilution method; format: functional
[9] = biological target: T1, Enoyl-[acyl-carrier-protein] reductase [NADPH] FabI (Staphylococcus aureus, UniProt Q6GI75); assay: Inhibition of N-terminal his 6 tagged Staphylococcus aureus Fabi (1 to […] residues) expressed in Escherichia coli BL21 incubated for 30 mins in presence of NADPH by fluorescence based microplate reader analysis
T1 sequence (Q6GI75 whole entry): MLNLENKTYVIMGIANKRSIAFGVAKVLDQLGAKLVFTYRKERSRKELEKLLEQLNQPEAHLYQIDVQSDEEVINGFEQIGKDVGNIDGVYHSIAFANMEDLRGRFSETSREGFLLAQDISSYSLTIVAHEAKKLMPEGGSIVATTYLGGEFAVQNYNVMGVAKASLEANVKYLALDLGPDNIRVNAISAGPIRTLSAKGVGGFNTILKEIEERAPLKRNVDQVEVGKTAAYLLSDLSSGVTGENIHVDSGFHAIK

Staphylococcus aureus [10] = assay: Antimicrobial activity against methicillin-susceptible Staphylococcus aureus ATCC25923 measured after 24 hrs by CLSI protocol based microdilution method; format: functional
Staphylococcus aureus [11] = assay: Antimicrobial activity against methicillin-susceptible Staphylococcus aureus ATCC29213 measured after 24 hrs by CLSI protocol based microdilution method; format: functional
[12] = biological target: T2, Enoyl-[acyl-carrier-protein] reductase [NADPH] FabI (Staphylococcus aureus) (UniProt Q6GI75); assay: Inhibition of N-terminal his 6 tagged Staphylococcus aureus Fabi (1 to […] residues) expressed in Escherichia coli BL21 at 1 uM incubated for 30 mins in presence of NADPH by fluorescence based microplate reader analysis relative to control
T2 sequence (whole entry): T1 sequence (Q6GI75 whole entry)

[13] = biological target: T2, Enoyl-[acyl-carrier-protein] reductase [NADPH] FabI (Staphylococcus aureus); assay: Inhibition of N-terminal his 6 tagged Staphylococcus aureus Fabi (1 to […] residues) expressed in Escherichia coli BL21 at 10 uM incubated for 30 mins in presence of NADPH by fluorescence based microplate reader analysis relative to control
[14] = biological target: T2, Enoyl-[acyl-carrier-protein] reductase [NADPH] FabI (Staphylococcus aureus); assay: Inhibition of N-terminal his 6 tagged Staphylococcus aureus Fabi (1 to […] residues) expressed in Escherichia coli BL21 at 2.5 uM incubated for 30 mins in presence of NADPH by fluorescence based microplate reader analysis relative to control

Structure (SMILES)	Activity (Staphylococcus aureus [1])	Activity (Staphylococcus aureus [2])	Activity (Staphylococcus aureus [3])	MIC (Enterococcus faecium)	MIC (Staphylococcus aureus [4])	MIC (Candida albicans)	MIC (Pseudomonas aeruginosa)	MIC (Escherichia coli)	MIC (Staphylococcus aureus [5])	Activity (Staphylococcus aureus [6])	MIC (Acinetobacter baumannii)	MIC (Staphylococcus aureus [7])	MIC (Staphylococcus aureus [8])	MIC (Enterococcus faecalis)	pIC50 [9]	MIC (Staphylococcus aureus [10])	MIC (Staphylococcus aureus [11])	inhibition [12]	inhibition [13]	inhibition [14]
CC(=O)NC[C@H]1CN(c2ccc(N3CCOCC3)c(F)c2)C(=O)O1 [LINEZOLID]	inactive	25.7 mm2	inactive	2 µg/mL (≈ 5.93 µM)	1 µg/mL (≈ 2.96 µM)	> 32 µg/mL	> 32 µg/mL	> 32 µg/mL	> 32 µg/mL	inactive	> 32 µg/mL									
Cc1c(Br)cccc1N1CC(c2nc3ccccc3n2C(C)C)CC1=O (configuration not stated)				> 32 µg/mL	16 µg/mL (≈ 38.8 µM)	> 32 µg/mL	> 32 µg/mL	> 32 µg/mL	32 µg/mL (≈ 77.6 µM)		> 32 µg/mL	16 µg/mL (≈ 38.8 µM)	16 µg/mL (≈ 38.8 µM)	> 32 µg/mL	5.76	16 µg/mL (≈ 38.8 µM)	8 µg/mL (≈ 19.4 µM)	21.1%	87%	
Cc1c(N2CC(c3nc4ccccc4n3C)CC2=O)cccc1[N+](=O)[O-] (configuration not stated)				> 32 µg/mL	16 µg/mL (≈ 45.7 µM)	> 32 µg/mL	> 32 µg/mL	> 32 µg/mL	32 µg/mL (≈ 91.3 µM)		> 32 µg/mL	16 µg/mL (≈ 45.7 µM)	16 µg/mL (≈ 45.7 µM)	> 32 µg/mL	5.82	16 µg/mL (≈ 45.7 µM)	8 µg/mL (≈ 22.8 µM)	42.8%	98%	
Cc1c(Br)cccc1N1CC(c2nc3cc(F)c(F)cc3n2C)CC1=O (configuration not stated)				> 32 µg/mL	> 32 µg/mL	> 32 µg/mL	> 32 µg/mL	> 32 µg/mL	> 32 µg/mL		> 32 µg/mL	> 32 µg/mL	> 32 µg/mL	> 32 µg/mL	5.28	> 32 µg/mL	32 µg/mL (≈ 76.1 µM)	3.2%	66.7%	
Cc1c(O)cccc1N1CC(c2nc3ccccc3n2C)CC1=O (configuration not stated)				> 32 µg/mL	8 µg/mL (≈ 24.9 µM)	> 32 µg/mL	> 32 µg/mL	> 32 µg/mL	8 µg/mL (≈ 24.9 µM)		> 32 µg/mL	8 µg/mL (≈ 24.9 µM)	4 µg/mL (≈ 12.4 µM)	> 32 µg/mL	6.19	8 µg/mL (≈ 24.9 µM)	8 µg/mL (≈ 24.9 µM)	61.7%	96.9%	
Cc1cccc(N2CC(c3nc4ccccc4n3C)CC2=O)c1C (configuration not stated)				> 32 µg/mL	16 µg/mL (≈ 50.1 µM)	> 32 µg/mL	> 32 µg/mL	> 32 µg/mL	16 µg/mL (≈ 50.1 µM)		> 32 µg/mL	16 µg/mL (≈ 50.1 µM)	8 µg/mL (≈ 25 µM)	> 32 µg/mL	6.01	8 µg/mL (≈ 25 µM)	8 µg/mL (≈ 25 µM)	53.1%	95.7%	76.8%

Reference: ChEMBL document CHEMBL5500393, “Discovery and Optimization of Novel SaFabI Inhibitors as Specific Therapeutic Agents for MRSA Infection” (J Med Chem, 2024)
